Reference: patent US20250041306A1, “TARGETED PROTEASE DEGRADATION (TED) PLATFORM” (EUBULUS BIOTHERAPEUTICS INC., priority 2021, published 2025)

Key:
[1] = test system: human gastric carcinoma cells N87; test: Cell proliferation experiment (Alarm blue), N87; assay type: cell-based; settings: N87 cells, 72 h culture; read-out: Anti cell proliferative activity EC50, N87
Method in brief: (§1)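 Log-phase cells in 96-well plates were exposed 72 h to compound in a 5-fold dilution series, duplicate wells. Viability was measured by Alamar blue fluorescence, and IC50 was derived from a fit using minimum, maximum and slope.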

[2] = test system: human small cell lung cancer NCI-H82 xenograft tumor; test: In vivo efficacy in nude mouse xenograft tumor model of human small cell lung cancer NCI-H82; parameters: species or system BALB/c nude mice; settings: nude mice
Method: Transplanted tumor cell line: human small cell lung cancer cell NCI-H82, derived from the American Type Culture Collection Center (ATCC, cryopreserved in liquid nitrogen in the laboratory). Under 5% CO2 and 37° C. culture conditions, cells were routinely cultured in RPMI-1640 culture medium containing 10% fetal bovine serum; they were passaged according to cell growth, with a passage ratio of 1:2 to 1:5.
Experimental animal: Female BALB/c nude mice (number: 65; age: 6-8 weeks) were purchased from Charles River and raised in the SPF animal room of Suzhou Shengsu New Pharmaceutical Development Co., Ltd. (3D Biooptima). The temperature is 20 to 25° C., and relative humidity is 40% to 70%, with bright light and dark light for 12 hours each; animals were free to drink and eat. After normal feeding for about 5 days, mice with good physical signs can be selected for this experiment after veterinary inspection. Before grouping, animals were identified at the base of tail using maker pens. After grouping, each animal was identified by ear clipping.
Animal model preparation: NCI-H82 cells at logarithmic growth phase were collected, the cells were resuspended in 50% serum-free RPMI-1640 medium and 50% Matrigel after counting. The concentration of cells was adjusted to […] cells/mL. […] After inoculation, the animal status and tumor growth were regularly observed, the tumor diameter was measured using a electronic vernier caliper, the data were entered into Excel to calculate the tumor volume. […] After the start of experiment, the tumor diameter was measured twice a week, the tumor volume was calculated, and the animal weight was weighed and recorded at the same time. […]
Preparation of UB-181322 sample: An appropriate amount of UB series sample was weighed and put it into a glass bottle; an appropriate volume of DMSO was added. […] The liquid was vortexed to mix evenly, with the proportions of DMSO, 30% Solutol aqueous solution and ultrapure water in the liquid being 5%, 20% and 75%, to obtain preparations with appropriate final concentrations, which are ready for use. […]

[3] = test system: Human Small Cell Lung Cancer H69; test: Cell proliferation experiment (Alarm blue), H69; assay type: cell-based; settings: H69 cells, 72 h culture; read-out: Anti cell proliferative activity EC50, H69
Method in brief: as §1

Human Colon Cancer HT-29 = test: Cell proliferation experiment (Alarm blue), HT-29; assay type: cell-based; settings: HT-29 cells, 72 h culture; read-out: Anti cell proliferative activity EC50, HT-29
Method in brief: as §1

[4] = test system: Human Colon Cancer cells Colo205; test: Cell proliferation experiment (Alarm blue), Colo205; assay type: cell-based; settings: Colo205 cells, 72 h culture; read-out: Anti cell proliferative activity EC50, Colo205
Method in brief: as §1

[5] = test system: Human Small Cell Lung Cancer NCI-H82; test: Cell proliferation experiment (Alarm blue), H82; assay type: cell-based; settings: H82 cells, 72 h culture; read-out: Anti cell proliferative activity EC50, H82
Method in brief: as §1

[6] = injection 23 mg/kg once every two days (FIG. 3B)

For `CC(C)[C@@H](NC(=O)CCOCCOCCOCCOCCOCCOCCOCCOCCN1C(=O)CC(SC[C@H](N)C(=O)N[C@H](Cc2ccccc2)C(=O)N[C@H]2CSSC[C@@H](C(=O)N[C@H](CO)[C@@H](C)O)NC(=O)[C@H]([C@@H](C)O)NC(=O)[C@H](CCCCN)NC(=O)[C@@H](Cc3c[nH]c4ccccc34)NC(=O)[C@H](Cc3ccccc3)NC2=O)C1=O)C(=O)N[C@@H](C)C(=O)Nc1ccc(COC(=O)N(CCC#Cc2ccc3c(c2)CN(C2CCC(=O)NC2=O)C3=O)[C@H]2CC[C@H](NC(=O)N3CCN(c4ccc(Nc5ncc(Cl)c(Nc6ccccc6C(N)=O)n5)cc4)CC3)CC2)cc1` (some centres unmarked) [UB-181322], the EC50 [1] was 470 nM, the “tumor inhibitory effect compared with blank group” value ([2]; injection 23 mg/kg once every two days (FIG. 3A)) was “shows the effect of inhibiting tumor growth” and the “mouse body weight during the administration period” value [2, 6] was “does not change significantly”. For the same compound, the toxicity [2, 6] was “low”, the EC50 [3] was greater than 1000 nM and the EC50 (Human Colon Cancer HT-29) was greater than 1000 nM. It also gave an EC50 [4] of 384 nM and an EC50 [5] of 312 nM.
